Holding throughout (format): in vivo
The subject of series [1] is adults with lymphoma or multiple myeloma. Description: Study C15002, phase 1, 3 dose schedules on a 21-day cycle. The text has this: Study C15002 is a phase 1 study in adults with lymphoma or multiple myeloma testing 3 dose schedules, each repeated on a 21-day cycle. One such schedule is Schedule A: Days 1, 2, 8, and 9.
As used herein, “dose-limiting toxicity” (DLT) is defined as any of the following events that are considered by the administering physician to be related to therapy with MLN4924: • Grade 4 neutropenia (ANC<500 cells/mm^3) lasting more than 7 consecutive days • Grade 3 neutropenia with fever and/or infection, where fever is defined as an oral temperature[…] • Grade 4 thrombocytopenia (platelets<25,000/mm^3 but >10,000/mm^3) lasting more than 7 consecutive days • Grade 3 thrombocytopenia with bleeding • A platelet count<10,000/mm^3 at any time • Grade 3 or greater nausea and/or emesis despite the use of optimal anti-emetic prophylaxis (wherein “optimal anti-emetic prophylaxis” is defined as an anti-emetic regimen that employs a 5-HT3 antagonist given in standard doses and according to standard schedules). Dexamethasone should not be used because of its CYP3A-inducing effects. • Grade 3 or greater diarrhea that occurs despite maximal supportive therapy • An absolute reduction in LVEF of ≧10% to a value<50% (e.g., LVEF=45% in a patient with LVEF=55% at baseline) • A decrease in LVEF to <40% • An increase in PASP to >50 mm Hg or 3× baseline • Any other Grade 3 or greater nonhematologic toxicity with the following exceptions: • Grade 3 arthralgia/myalgia • Brief (<1 week) Grade 3 fatigue • Grade 3 fever that occurs in the absence of Grade 3 or worse neutropenia or documented infection following daily administration of MLN4924 • Treatment delay of more than 1 week because of a lack of adequate recovery of MLN4924-related hematological or nonhematologic toxicities • MLN4924-related toxicity that requires that any doses of MLN4924 are missed during a cycle or discontinuation of therapy with MLN4924
Study C15002 is a phase 1 study in adults with lymphoma or multiple myeloma testing 3 dose schedules, each repeated on a 21-day cycle. Two such schedules are intermittent dosing schedules, Schedule B: Days 1, 4, 8, and 11; and Schedule C: Days 1 and 8. As of Oct. […] Patients on Schedule B were enrolled to dose levels of 110 mg/m^2, 147 mg/m^2, 196 mg/m^2 and 261 mg/m^2 before the MTD was determined to be 196 mg/m^2. […]
(§1) Although DLTs can occur at any point during treatment, only DLTs occurring during Cycle 1 of treatment will necessarily influence decisions regarding dose escalation, expansion of a dose level, or evaluation of intermediate dose levels. Patients are monitored through all cycles of therapy for treatment-related toxicities.

Series [2] has as its system adults with metastatic melanoma. Description: Study C15005, phase 1 dose-escalation study. As for the experimental part:
As used herein, “dose-limiting toxicity” (DLT) is defined as any of the following events that are considered by the administering physician to be related to therapy with MLN4924: • Grade 4 neutropenia (ANC<500 cells/mm^3) lasting more than 7 consecutive days • Grade 3 neutropenia with fever and/or infection, where fever is defined as an oral temperature[…] • Grade 4 thrombocytopenia (platelets<25,000/mm^3 but >10,000/mm^3) lasting more than 7 consecutive days • Grade 3 thrombocytopenia with bleeding • A platelet count<10,000/mm^3 at any time • Grade 3 or greater nausea and/or emesis despite the use of optimal anti-emetic prophylaxis (wherein “optimal anti-emetic prophylaxis” is defined as an anti-emetic regimen that employs a 5-HT3 antagonist given in standard doses and according to standard schedules). […]
Study C15005 is a phase 1, dose-escalation study in adults with metastatic melanoma testing MLN4924 dosing on Days 1, 4, 8, and 11 (Schedule A) or Days 1, 8 and 15 (Schedule B) repeated every 21 days. […] Patients were enrolled to dose levels of 50 mg/m^2, 67 mg/m^2, 89 mg/m^2, 118 mg/m^2, 157 mg/m^2, 209 mg/m^2 and 278 mg/m^2 before the MTD was determined to be 209 mg/m^2. […]
as §1

The test system of series [3] is adults with advanced nonhematologic malignancies (solid tumors). Put plainly: Study C15001, phase 1, four 21-day dose schedules. To be noted: for Findings: Prolonged stable disease in (tumor, cycles): as of Oct. 16, 2011; for DLTs occurred (Grade 3 LFTs): in vivo. As for the experimental part:
Study C15001 is a first-in-human, phase 1 study in adults with advanced nonhematologic malignancies testing the tolerability of four 21-day dose schedules, including the following: Schedule A: QD×5; Schedule B: Days 1, 3, and 5 given with dexamethasone; and Schedule C: Days 1, 3, and 5 given without dexamethasone. Dose escalation is based on an adaptive approach using the continual reassessment method (CRM).
Schedule A (QD×5) testing started with 25 mg/m^2 and proceeded through 83 mg/m^2. Increases in liver function tests (LFTs) (AST, ALT, ALP and bilirubin) occurred during Cycle 1 following both single and multiple MLN4924 doses. LFT increases were dose limiting at doses exceeding 50 mg/m^2. Grade 3 and 4 LFT elevations occurred in 2 patients, who both died during the first week of study treatment. One death occurred in a patient with widely metastatic breast cancer receiving 61 mg/m^2, and the second occurred in a patient with advanced colon cancer receiving 83 mg/m^2. In both cases, the investigators assessed the hepatic toxicity as possibly related to MLN4924. As a result of these deaths and their association with increases in transaminase and bilirubin, all ongoing MLN4924 studies were amended to require that bilirubin levels be normal (<ULN) and that ALT and AST levels correspond with […] Grade 1 intensity before administering initial and all subsequent doses of MLN4924. LFTs are checked prior to administration of every dose.
The MTD for Study C15001 Schedule A was determined to be 50 mg/m^2 QD×5. […] Three DLTs have occurred on Schedule B (Grade 3 LFTs), and 2 DLTs have occurred on Schedule C (Grade 3 LFTs). The MTD for these dosing schedules was determined to be 50 mg/m^2 and 67 mg/m^2, respectively. […]
Study C15001 is a phase 1 study in adults with advanced nonhematologic malignancies testing the tolerability of four 21-day dose schedules, including one intermittent dosing schedule, Schedule D, on which doses are administered on Days 1, 8, and 15 as a 3-hour infusion. As of Oct. […] Patients have been enrolled to the following dose levels: 147 mg/m^2 and 196 mg/m^2. Testing continues, and dose escalation is based on an adaptive approach using the continual reassessment method (CRM). […]

The subject of series [4] is adults with acute myelogenous leukemia and myelodysplastic syndrome. Put plainly: Study C15003, phase 1, 3 dose schedules on a 21-day cycle.
The mark [5] stands for this setting: Schedule B: Days 1, 4, 8, 11, at 147 mg/m^2.

“Also recorded” adds a separate entry of the source.

Turning to `NS(=O)(=O)OC[C@@H]1C[C@@H](n2ccc3c(N[C@H]4CCc5ccccc54)ncnc32)C[C@@H]1O` [MLN4924, ((1S,2S,4R)-4-(4-((1S)-2,3-dihydro-1H-inden-1-ylamino)-7H-pyrrolo[2,3-d]-pyrimidin-7-yl)-2-hydroxycyclopentyl)methyl sulfamate], in series [1] (Schedule A: Days 1, 2, 8, 9, Hodgkin's Lymphoma (7 cycles)), the Findings entry is on record as “Partial remission in Hodgkin's”. For the same compound, the “Adverse event in one patient (did not contribute to definition of MTD)” value in series [1] (Schedule A, 110 mg/m^2 expansion cohort) was “Grade 3 AST and ALT elevation”. Moreover, in series [1] (Schedule B: Days 1, 4, 8, 11, as of Oct. 7, 2011), the DLTs observed result is reported as “no DLTs have been observed”. Also, the DLTs result in series [1] (Schedule C: Days 1 and 8, at 196 mg/m^2) is “One DLT occurred on Schedule C at 196 mg/m^2 (reversible Grade 3 renal failure)”; in series [4] (Schedule A: Days 1, 3, 5, at 78 mg/m^2), “Two DLTs occurred at 78 mg/m^2 (multi-organ failure and reversible elevation of ALT)”. Also, the “Findings: Prolonged stable disease in (tumor, cycles)” value in series [2] (Schedule A: Days 1, 4, 8, 11) is “Melanoma (5, 6, 6, 6, 10, 12 cycles)”; in series [2] (Schedule B: Days 1, 8, 15), “Melanoma (11+ cycles)”; in series [3] (Schedule D: Days 1, 8, 15, 3-hr infusion) it was “Colon cancer (6+ cycles); also recorded: NSCLC^5 (5+ cycles)”; in series [3] (Schedules A, B, C (findings cell spans the three schedules)), “Melanoma (7, 7, 10 cycles); also recorded: SCLC^5 (7 cycles),; also recorded: CRC^5 (5, 5, 9 cycles),; also recorded: Breast (5, 7 cycles); also recorded: Head and Neck (7 cycles)”. Moreover, the results for the “Number of DLTs” value in series [2] (in vivo) and in series [4] (setting [5]) were “two DLTs have occurred” and “Four DLTs in three patients”, respectively. Moreover, in series [3] (Schedule A (QD×5), Cycle 1, AST, ALT, ALP and bilirubin), the “Doses at which LFT increases were dose limiting” value is recorded as “exceeding 50 mg/m^2”. For the same compound, the “Grade 3 and 4 LFT elevations, patients who both died during first week of treatment” value in series [3] (Schedule A, one at 61 mg/m^2, one at 83 mg/m^2) is listed as 2 patients. Further, the “Dose, MTD not reached (→)” value in series [3] (Schedule D: Days 1, 8, 15, 3-hr infusion, 21-day cycle, solid tumors) was no less than 196 mg/m^2. The “DLTs occurred (Grade 3 LFTs)” value in series [3] (human, 21 days) is 2; in series [3] it was “Three DLTs”. Further, the “Kind of DLTs” value in series [4] (setting [5]) was “lactic acidosis and hypotension, GI necrosis, and acute renal failure”. For the same compound, in series [4] (Schedule B: Days 1, 4, 8, 11 of 21-day cycle, AML, MDS), the “MTD (maximum tolerated dose)” value is listed as 83 mg/m^2.

Source of the values: patent US20140249167A1, “Administration of NEDD8-Activating Enzyme Inhibitor” (priority 2010, published 2014).
